According to patent publication US12138256B2, “Treatment of cardiopulmonary disorders” (Bayer Aktiengesellschaft, priority 2021, dated 2024):
“And” between values parts separate entries of the source, which are not always exact repeats. Identical values can stand only once.

Tests used:
[1] = system: thromboxane analog U46619 induced PAH in minipigs; test: Haemodynamics (PAP, BP) in the anesthetized thromboxane challenged PAH minipig after inhaled (nebulized) application (C-2.1); format: in vivo, Göttingen minipig
Protocol: Experiments were carried out in anesthetized Göttingen minipigs, anesthetized rats and conscious, telemetrically instrumented dogs. Acute pulmonary hypertension was induced for example by infusion of a thromboxane A2 analogon, by acute hypoxia treatment or hypoxia treatment over a number of weeks and/or by administration of monocrotaline. Test substances were applied via nebulization using the Nebutec® or Aeroneb® Pro nebulizer system, and/or by means of powder and/or solution applicators for experimental intratracheal administration (Liquid MicroSprayer®, Dry Powder Insufflator™, MicroSprayer®, Penn-Century Inc., Wyndmoor, PA, USA) or after solid nebulization inserted into the inspiration arm of the ventilation. Compounds were employed as solids or solutions depending on the molecular structure and the technical possibility depending on the experiment. The haemodynamic signals were recorded and evaluated by means of pressure transducers/amplifiers (Combitransducer B. Braun, Melsungen, Germany or CardioMEMS Inc., Atlanta, GA, USA) and Ponemah® or CardioMems® as data aquisition software. After long-term experiments (for example monocrotaline rat), it is also possible to carry out a histological evaluation.
Healthy Gottingen Minipigs® Ellegaard (Ellegaard, Denmark) of both sexes and having a weight of 2-6 kg were used. The animals were sedated by i.m. administration of about 25 mg/kg ketamine and about 10 mg/kg azaperone. Anaesthesia was initiated by i.v. administration of about 2 mg/kg ketamine and about 0.3 mg/kg midazolam. Maintenance of anaesthesia was by i.v. administration of about 7.5-30 mg/kg/h ketamine and about 1-4 mg/kg/h midazolam (rate of infusion 1-4 ml/kg/h) and about 150 μg/kg/h pancuronium bromide (for example Pancuronium-Actavis). After intubation, the animals were ventilated by the ventilator at a constant respiratory volume (10-12 ml/kg, 35 breaths/min; Avea®, Viasys Healthcare, USA, or Engstrom Carestation, GE Healthcare, Freiburg, Germany) such that an end-tidal CO2 concentration of about 5% was achieved. Ventilation was performed with room air, enriched with about 40% oxygen (normoxia). For the measurement of the haemodynamic parameters such as pulmonary arterial pressure (PAP), blood pressure (BP) and heart rate (HR), catheters were inserted into the carotid artery to measure the blood pressure, and a Swan-Ganz® catheter was introduced in a flow-directed manner via the jugular vein into the pulmonary artery. The haemodynamic signals were recorded and evaluated by means of pressure transducers (Combitransducer, B. Braun, Melsungen, Germany)/amplifiers and Ponemah® as data aquisition software.
After the instruments have been placed into the animals, continuous infusion of a thromboxane A2 analog was initiated to increase the pulmonary arterial pressure. […] D0400, or Cayman Chemical Company, cat. no. 16440), dissolved in physiological saline, were infused to achieve an increase of the mean pulmonary arterial pressure to values of over 25 mmHg. 30 minutes after the start of the infusion, a plateau was reached, and the experiment was started.
The test substances were administered as i.v. infusion or by inhalation. For the preparation of the solution for inhalation, the following procedure was adopted: For an animal having a weight of 4 kg, to prepare the stock solution (300 μg/kg), 1.2 mg of the test compound were weighed out and dissolved in a total volume of 3 ml (1% DMSO, 99% 0.2% strength citric acid solution, 1 N aqueous sodium hydroxide solution to adjust the pH to 8). The solution was then diluted to the concentration employed using 0.2% strength citric acid which had been adjusted to pH 8 beforehand with aqueous sodium hydroxide solution. In each test, 3 ml of the solution of test compound per 4 kg animal were nebulized in the inhalation arm of the respiratory circuit using the Aeroneb® Pro nebulizer system. The mean nebulization time was about 7 min from the start of the nebulization.

[2] = system: isolated Langendorff-perfused rat heart; test: Isolated perfused heart according to Langendorff: perfusion pressure and wash-out score (C-1.2); details: 100 nmol/l; for Perfusion pressure (%) (timepoint at 20 min) Mean: isolated Langendorff-perfused rat heart; for Perfusion pressure (%) (timepoint at 90 min) Mean: wash-out phase
Protocol: Male Wistar rats (strain HsdCpb:WU) with a body weight of 200-250 g were anaesthetized with Narcoren® (100 mg/kg). The thorax was opened and the heart was then exposed, excised and connected to a Langendorff apparatus by placing a cannula into the aorta. The heart was perfused retrogradely at 9 ml/min at constant flow with a Krebs-Henseleit buffer solution (gassed with 95% O2 and 5% CO2, pH 7.4, 35° C.; composition in mmol/l: NaCl 118; KCl 3; NaHCO3 22; KH2PO4 1.2; MgSO4 1.2; CaCl2 1.8; Glucose 10; Na pyruvate 2). A pressure transducer registered the perfusion pressure in the perfusion system. The left ventricular pressure (LVP) was measured using a second pressure transducer connected to a water-filled balloon which was inserted into the left ventricle via the left atrium. The end diastolic pressure was initially set to 8 mm Hg by adjusting the volume of the balloon. The hearts were spontaneously beating. The signals from the pressure transducer were amplified, registered by a personal computer (Powerlab Chart software, ADInstruments).
Then the hearts were perfused for a further 120 min without the test substance (wash-out phase). The reversibility of the effect (wash-out score) was calculated as a percentage of the PP recovery after 60 min of washout related to the maximum drop of PP induced by the test compound. The wash-out score obtained in this manner was taken as a measure for the residence time of the test substance at the site of action.

[3] = system: thromboxane analog U46619 induced PAH in minipigs; test: PAH minipig model: comparison with and on top of standard of care (bosentan, sildenafil, riociguat); format: in vivo, Göttingen minipig; details: for BP decrease % / PAP decrease %: % change per animal; for effects on PAP and BP: bosentan 1 mg/kg, sildenafil 300 μg/kg/h, riociguat 3 μg/kg/h systemically, comparative example 11 30 and 100 μg/kg inhaled
Excerpt: Efficacy of inhaled comparative example 11 was compared with systemically applied bosentan, sildenafil and riociguat (see FIG. 53a) in the PAH minipig model. […] Therefore inhaled application of comparative example 11 offers clear benefits as systemic effects are avoided, compared to standard of care.

[4] = inhaled 100 μg/kg, 0 min vs. start inhalation
[5] = inhaled 100 μg/kg, 10 min vs. start inhalation
[6] = inhaled 100 μg/kg, 20 min vs. start inhalation
[7] = inhaled 100 μg/kg, 30 min vs. start inhalation
[8] = inhaled 100 μg/kg, −5 min vs. start inhalation
[9] = Sildenafil 300 μg/kg/h systemically applied
[10] = inhaled 3μg/kg, 0 min vs. start inhalation
[11] = inhaled 3μg/kg, 10 min vs. start inhalation
[12] = inhaled 3μg/kg, 20 min vs. start inhalation
[13] = inhaled 3μg/kg, 30 min vs. start inhalation
[14] = inhaled 3μg/kg, 40 min vs. start inhalation
[15] = inhaled 3μg/kg, 50 min vs. start inhalation
[16] = inhaled 3μg/kg, 60 min vs. start inhalation
[17] = inhaled 3μg/kg, 70 min vs. start inhalation
[18] = inhaled 3μg/kg, 80 min vs. start inhalation
[19] = inhaled 3μg/kg, 90 min vs. start inhalation
[20] = inhaled 3μg/kg, −5 min vs. start inhalation
[21] = Bosentan 1 mg/kg systemically applied

## COC(=O)N(C)c1c(N)nc(-c2nn(Cc3ccccc3F)c3ncccc23)nc1N [Riociguat (comparative example 2)]
[1]; [4]
  % changes in BP vs baseline: 100% and 102%
  % changes in PAP vs baseline: 99%
[1]; [5]
  % changes in BP vs baseline: 91% and 86%
  % changes in PAP vs baseline: 95% and 92%
[1]; [6]
  % changes in BP vs baseline: 91% and 85%
  % changes in PAP vs baseline: 94% and 90%
[1]; [7]
  % changes in BP vs baseline: 94%
  % changes in PAP vs baseline: 94% and 90%
[1]; [8]
  % changes in BP vs baseline: 100%
  % changes in PAP vs baseline: 99% and 101%
[2]
  Wash-out score (%) after 60 min: 98.0%
  Perfusion pressure (%) (timepoint at 20 min) Mean: 55.4%
  Perfusion pressure (%) (timepoint at 90 min) Mean: 99.9%

## CCCc1nn(C)c2c(=O)[nH]c(-c3cc(S(=O)(=O)N4CCN(C)CC4)ccc3OCC)nc12 [sildenafil, reference compound]
[3]; [9]
  BP decrease %: −10.6% and −6.1% and −14.5%
  PAP decrease %: −15.3% and −34.3% and −16.1%
[3]
  effects on PAP and BP: decreases in both PAP and BP

## O=C(O)CCCCN(CCc1ccccc1OCc1ccc(CCc2ccccc2)cc1)Cc1ccc(C(=O)O)cc1 [Cinaciguat (comparative example 1)]
[1]; [10]
  % changes in BP vs baseline: 100% and 99%
  % changes in PAP vs baseline: 99%
[1]; [11]
  % changes in BP vs baseline: 91% and 89%
  % changes in PAP vs baseline: 101% and 100%
[1]; [12]
  % changes in BP vs baseline: 76% and 82%
  % changes in PAP vs baseline: 99% and 98%
[1]; [13]
  % changes in BP vs baseline: 74% and 86%
  % changes in PAP vs baseline: 98%
[1]; [14]
  % changes in BP vs baseline: 73% and 89%
  % changes in PAP vs baseline: 97% and 98%
[1]; [15]
  % changes in BP vs baseline: 82% and 94%
  % changes in PAP vs baseline: 97% and 98%
[1]; [16]
  % changes in BP vs baseline: 88% and 94%
  % changes in PAP vs baseline: 97% and 99%
[1]; [17]
  % changes in BP vs baseline: 100% and 99%
  % changes in PAP vs baseline: 97% and 100%
[1]; [18]
  % changes in BP vs baseline: 103% and 100%
  % changes in PAP vs baseline: 95% and 98%
[1]; [19]
  % changes in BP vs baseline: 105% and 102%
  % changes in PAP vs baseline: 95% and 99%
[1]; [20]
  % changes in BP vs baseline: 100%
  % changes in PAP vs baseline: 100%
[1]; inhaled 10 μg/kg, 0 min vs. start inhalation
  % changes in PAP vs baseline: 100% and 101%
[1]; inhaled 10 μg/kg, 10 min vs. start inhalation
  % changes in PAP vs baseline: 100%
[1]; inhaled 10 μg/kg, 20 min vs. start inhalation
  % changes in PAP vs baseline: 96% and 100%
[1]; inhaled 10 μg/kg, 30 min vs. start inhalation
  % changes in PAP vs baseline: 94% and 100%
[1]; inhaled 10 μg/kg, 40 min vs. start inhalation
  % changes in PAP vs baseline: 95% and 98%
[1]; inhaled 10 μg/kg, 50 min vs. start inhalation
  % changes in PAP vs baseline: 94% and 96%
[1]; inhaled 10 μg/kg, 60 min vs. start inhalation
  % changes in PAP vs baseline: 95% and 94%
[1]; inhaled 10 μg/kg, 70 min vs. start inhalation
  % changes in PAP vs baseline: 93% and 94%
[1]; inhaled 10 μg/kg, 80 min vs. start inhalation
  % changes in PAP vs baseline: 94% and 92%
[1]; inhaled 10 μg/kg, 90 min vs. start inhalation
  % changes in PAP vs baseline: 93% and 89%
[1]; inhaled 10 μg/kg, −5 min vs. start inhalation
  % changes in PAP vs baseline: 100%
[2]
  Wash-out score (%) after 60 min: 29.5%
  Perfusion pressure (%) (timepoint at 20 min) Mean: 62.1%
  Perfusion pressure (%) (timepoint at 90 min) Mean: 69.3%

## COc1ccccc1Oc1c(NS(=O)(=O)c2ccc(C(C)(C)C)cc2)nc(-c2ncccn2)nc1OCCO [Bosentan, reference compound]
[3]; [21]
  BP decrease %: −6.7% and −15.0% and −10.3% and −12.7%
  PAP decrease %: −3.7% and 3.9% and −7.7% and −16.0%
[3]
  effects on PAP and BP: decrease in BP with only minor effects on PAP
